Measurements from patent US20060205597A1, “Weed-controlling mulching composition” (priority 2002, published 2006).

System: Rumex obtusifolius, Trifolium repens, and Artemisia indica var. maximowiczii
Assay: Field test on bottom weed of an apple orchard
Assay type: in vivo
Conditions: after 3 months
Source text: On May 21, 5.0 liters per square meter (m^2) of a slurry obtained by mixing 15% of nonstoichiometric magnesia carbonate cement with 100 fold diluted solution of glyphosate was applied to the bottom weed of an apple orchard in Hirosaki city of Aomori prefecture. The kinds of the bottom weed included Rumex obtusifolius, Trifolium repens, and Artemisia indica var. maximowiczii and these grew to a height of 150 mm. As comparative sections, a glyphosate alone section and a no-glyphosate section were provided and after 3 months the state of growth of weeds was observed. […] From the viewpoint of the thickness of the weed, mixed application of the herbicide and the nonstoichiometric magnesia carbonate cement was very effective and the mixed treatment section inhibited the growth of the weeds until October.

## O=C(O)CNCP(=O)(O)O [glyphosate]
5.0 liters per square meter applied May 21
  state of growth of weeds: again grew
  height of regrown weed (spindly growth): 230 mm
